Assay results published in publication PMC8617031, “Development of a BCL-xL and BCL-2 dual degrader with improved anti-leukemic activity,” (Nature Communications, 2021).
Several values for one entry are separate records, joined by “and”; a condition that tells them apart may be missing. Identical values can stand only once. Like-named read-outs stand apart in the source and are kept apart here.

Columns and labels:
His-tagged BCL-2 = target: T1, His-tagged BCL-2 (Homo sapiens, UniProt P10415); assay: AlphaScreen competitive binary binding, BCL-2 (biotin-BIM peptide); conditions: for Alpha signal normalised to Maximum/Minimum (inhibition): in % (unit assumed)
T1 construct: purchased Sigma-Aldrich SRP0186
Experimental: The reagents were diluted in a buffer containing 250 mM HEPES pH 7.5, 1 M NaCl, 1% BSA, and 0.05% Tween-80. His-tagged BCL-xL (0.5 nM, Cat. No. SRP0187, Sigma-Aldrich) or BCL-2 (1 nM, Cat. No. SRP0186, Sigma-Aldrich) were incubated with serial diluted 753a or 753b and 2 nM biotin-tagged BAD (biotin-[…] amino-terminal, AnaSpec, for BCL-xL) or 10 nM BIM peptides (biotin-[…] N-terminal, AnaSpec, for BCL-2) to a final volume of 40 µl in a 96-well PCR plate. […] After incubation for 2 h, 5 µl 6× His-acceptor beads (Cat. No. AL128M, PerkinElmer) were added to each well at 20 µg/ml final concentration and incubated for 1 h. Then 5 µl streptavidin-donor beads were added (Cat. No. 6760002, PerkinElmer) to each well at 20 µg/ml final concentration and incubated for 45 min. At the end of the incubation period, 17 µl of each sample was transferred in adjacent wells of 384-well proxy plate (Cat. No. 6008280, PerkinElmer). The plate was scanned using the Alpha program on Biotek’s Synergy Neo2 multimode plate reader. The inhibition constant (Ki) was calculated using the non-linear regression, one site, competitive binding, Fit Ki function on GraphPad Prism 9 software, based on experimentally determined dissociation constant (Kd) for each protein–peptide pair.

Hela cells = assay: Viability (MTS) of Hela cells; format: cell-based, human; conditions: in % (unit assumed)
Experimental: (§1) Suspension cells were treated 30 min after seeding, whereas adherent cells were allowed to adhere overnight and were then treated. Compound treatments were prepared in complete cell culture medium and 100 µl of 2× treatment-containing medium were added to each well. Complete cell culture medium without treatment was added in control wells, and wells containing medium without cells served as background. The outer wells of the 96-well plate were not used for treatment and were filled with 250 µl of PBS to reduce evaporation of medium from inner wells. Each compound and/or combination was tested at nine different concentrations with three replicates. The cell viability was measured after 72 h by tetrazolium-based MTS assay. MTS reagent (2 mg ml^–1 stock; cat. no. G1111, Promega) was freshly supplemented with phenazine methosulfate (PMS, 0.92 mg ml^–1 stock, cat. no. P9625, Sigma-Aldrich) in 20:1 ratio, and 20 µl of this mixture was added to each control and treatment well. The cells were incubated for 4 h at 37 °C and 5% CO2, and then the absorbance was recorded at 490 nm using Biotek’s Synergy Neo2 multimode plate reader (Biotek). The average absorbance value of background wells was subtracted from absorbance value of each control and treatment well, and percent cell viability ((At/A0) × 100)) was determined in each treatment well, where At is the absorbance value of the treatment well and A0 is the average absorbance value of control wells after background subtraction. The data were expressed as average percentage cell viability and fitted in non-linear regression curves using GraphPad Prism 7 (GraphPad Software, La Jolla, CA, USA).

293T cells = assay: Viability (MTS) of 293T cells; format: cell-based, human; conditions: normalised to own plate; for 293T cell viability, MTS absorbance 490 as percent of untreated control, mean of three wells: mean of 3 wells
Experimental: as §1

T1 sequence (P10415 whole entry): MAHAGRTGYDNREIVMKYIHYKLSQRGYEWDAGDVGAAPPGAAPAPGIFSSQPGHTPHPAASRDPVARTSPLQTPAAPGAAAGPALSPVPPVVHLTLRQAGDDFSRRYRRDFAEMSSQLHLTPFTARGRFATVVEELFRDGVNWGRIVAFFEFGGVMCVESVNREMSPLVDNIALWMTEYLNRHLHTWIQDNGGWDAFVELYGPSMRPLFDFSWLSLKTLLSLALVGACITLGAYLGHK

Alpha signal normalised to Maximum/Minimum (inhibition) (His-tagged BCL-2; BCL-2 Rep-1, 0.000305176 uM, 0.000305176 µM): 59.5965
inhibition at 0.000305176 µM (His-tagged BCL-2; BCL-2 Rep-1, 0.000305176 uM, read-out: Alpha signal normalised to Maximum/Minimum (inhibition)): 58.7%
Alpha signal normalised to Maximum/Minimum (inhibition) (His-tagged BCL-2; BCL-2 Rep-1, 0.0012207 uM, 0.0012207 µM): 60.0938
inhibition at 0.0012207 µM (His-tagged BCL-2; BCL-2 Rep-1, 0.0012207 uM, read-out: Alpha signal normalised to Maximum/Minimum (inhibition)): 49.1%
Alpha signal normalised to Maximum/Minimum (inhibition) (His-tagged BCL-2; BCL-2 Rep-1, 0.00488281 uM, 0.00488281 µM): 80.812
inhibition at 0.00488281 µM (His-tagged BCL-2; BCL-2 Rep-1, 0.00488281 uM, read-out: Alpha signal normalised to Maximum/Minimum (inhibition)): 82.4%
Alpha signal normalised to Maximum/Minimum (inhibition) (His-tagged BCL-2; BCL-2 Rep-1, 0.0195312 uM, 0.0195312 µM): 99.3807
inhibition at 0.0195312 µM (His-tagged BCL-2; BCL-2 Rep-1, 0.0195312 uM, read-out: Alpha signal normalised to Maximum/Minimum (inhibition)): 98.6%
Alpha signal normalised to Maximum/Minimum (inhibition) (His-tagged BCL-2; BCL-2 Rep-1, 0.078125 uM, 0.078125 µM): 99.9974
inhibition at 0.078125 µM (His-tagged BCL-2; BCL-2 Rep-1, 0.078125 uM, read-out: Alpha signal normalised to Maximum/Minimum (inhibition)): 100%
Alpha signal normalised to Maximum/Minimum (inhibition) (His-tagged BCL-2; BCL-2 Rep-1, 0.3125 uM, 0.3125 µM): 99.341
inhibition at 0.3125 µM (His-tagged BCL-2; BCL-2 Rep-1, 0.3125 uM, read-out: Alpha signal normalised to Maximum/Minimum (inhibition)): 98.9%
Alpha signal normalised to Maximum/Minimum (inhibition) (His-tagged BCL-2; BCL-2 Rep-1, 1.25 uM, 1.25 µM): 100.024
inhibition at 1.25 µM (His-tagged BCL-2; BCL-2 Rep-1, 1.25 uM, read-out: Alpha signal normalised to Maximum/Minimum (inhibition)): 99%
Alpha signal normalised to Maximum/Minimum (inhibition) (His-tagged BCL-2; BCL-2 Rep-1, 5 uM, 5 µM): 98.7813
inhibition at 5 µM (His-tagged BCL-2; BCL-2 Rep-1, 5 uM, read-out: Alpha signal normalised to Maximum/Minimum (inhibition)): 99%
Alpha signal (raw counts) (His-tagged BCL-2; BCL-2 Rep-2, 0.00488281 uM): 125701 and 136831
Alpha signal normalised to Maximum/Minimum (inhibition) (His-tagged BCL-2; BCL-2 Rep-2, 0.0195312 uM, 0.0195312 µM): 98.383
inhibition at 0.0195312 µM (His-tagged BCL-2; BCL-2 Rep-2, 0.0195312 uM, read-out: Alpha signal normalised to Maximum/Minimum (inhibition)): 98.1%
Alpha signal normalised to Maximum/Minimum (inhibition) (His-tagged BCL-2; BCL-2 Rep-2, 0.078125 uM, 0.078125 µM): 99.1744
inhibition at 0.078125 µM (His-tagged BCL-2; BCL-2 Rep-2, 0.078125 uM, read-out: Alpha signal normalised to Maximum/Minimum (inhibition)): 98.7%
Alpha signal normalised to Maximum/Minimum (inhibition) (His-tagged BCL-2; BCL-2 Rep-2, 0.3125 uM, 0.3125 µM): 99.3426
inhibition at 0.3125 µM (His-tagged BCL-2; BCL-2 Rep-2, 0.3125 uM, read-out: Alpha signal normalised to Maximum/Minimum (inhibition)): 98.9%
Alpha signal normalised to Maximum/Minimum (inhibition) (His-tagged BCL-2; BCL-2 Rep-2, 1.25 uM, 1.25 µM): 99.8148
inhibition at 1.25 µM (His-tagged BCL-2; BCL-2 Rep-2, 1.25 uM, read-out: Alpha signal normalised to Maximum/Minimum (inhibition)): 97.9%
Alpha signal normalised to Maximum/Minimum (inhibition) (His-tagged BCL-2; BCL-2 Rep-2, 5 uM, 5 µM): 100.138
inhibition at 5 µM (His-tagged BCL-2; BCL-2 Rep-2, 5 uM, read-out: Alpha signal normalised to Maximum/Minimum (inhibition)): 98%
Alpha signal (raw counts) (His-tagged BCL-2; BCL-2 Rep-2, plate row C, 1.25 uM): 32515 and 16642
Alpha signal (raw counts) (His-tagged BCL-2; BCL-2 Rep-2, plate row D, 0.3125 uM): 24362 and 20560
Alpha signal (raw counts) (His-tagged BCL-2; BCL-2 Rep-2, plate row E, 0.078125 uM): 25987 and 21955
Alpha signal (raw counts) (His-tagged BCL-2; BCL-2 Rep-2, plate row F, 0.0195312 uM): 31255 and 28520
Alpha signal (raw counts) (His-tagged BCL-2; BCL-2 Rep-2, plate row H, 0.0012207 uM): 409647 and 386712
Alpha signal (raw counts) (His-tagged BCL-2; BCL-2 Rep-2, plate row I, 0.000305176 uM): 513586 and 565907
Alpha signal (raw counts) (His-tagged BCL-2; BCL-2 Rep-2, plate row J, 7.62939e-5 uM): 711623 and 736033
Alpha signal (raw counts) (His-tagged BCL-2; BCL-2 Rep-2, plate row K, 1.90735e-5 uM): 598210 and 675191
Structure (SMILES): CC1(C)CCC(c2ccc(Cl)cc2)=C(CN2CCN(c3ccc(C(=O)NS(=O)(=O)c4ccc(N[C@H](CCN5CCOCC5)CSc5ccccc5)c(S(=O)(=O)C(F)(F)F)c4)cc3)CC2)C1 [ABT263, navitoclax]
cell viability normalised to control wells (single replicate) (Hela cells; MTS absorbance 490, Conc 0.00137174 uM): 109.176 and 100.419
cell viability normalised to control wells (single replicate) (Hela cells; MTS absorbance 490, Conc 0.00411523 uM): 94.0029 and 98.8584
cell viability normalised to control wells (single replicate) (Hela cells; MTS absorbance 490, Conc 0.037037 uM): 90.3613 and 97.2977
cell viability normalised to control wells (single replicate) (Hela cells; MTS absorbance 490, Conc 0.111111 uM): 79.4364 and 85.7659 and 104.581
cell viability normalised to control wells (single replicate) (Hela cells; MTS absorbance 490, Conc 0.333333 uM): 80.9971 and 79.263
cell viability normalised to control wells (single replicate) (Hela cells; MTS absorbance 490, Conc 1 uM): 85.9393 and 80.3035
cell viability normalised to control wells (single replicate) (Hela cells; MTS absorbance 490, Conc 3 uM): 78.7428 and 78.4827
293T cell viability, MTS absorbance 490 as percent of untreated control, mean of three wells (293T cells; 0.00137174 uM): 97.7794
293T cell viability, MTS absorbance 490 as percent of untreated control, single replicate well (293T cells; 0.00137174 uM): 98.6099 and 98.5015
293T cell viability, MTS absorbance 490 as percent of untreated control, mean of three wells (293T cells; 0.00411523 uM): 103.484
293T cell viability, MTS absorbance 490 as percent of untreated control, single replicate well (293T cells; 0.00411523 uM): 107.709 and 108.359
293T cell viability, MTS absorbance 490 as percent of untreated control, single replicate well (293T cells; 0.037037 uM): 116.375 and 110.092
293T cell viability, MTS absorbance 490 as percent of untreated control, single replicate well (293T cells; 0.111111 uM): 96.1184 and 122.874 and 120.166
293T cell viability, MTS absorbance 490 as percent of untreated control, single replicate well (293T cells; 0.333333 uM): 101.968 and 111.934
293T cell viability, MTS absorbance 490 as percent of untreated control, single replicate well (293T cells; 1 uM): 97.2017 and 104.893
293T cell viability, MTS absorbance 490 as percent of untreated control, single replicate well (293T cells; 3 uM): 60.8052 and 61.6718
